Test results taken from patent US20120283175A1, “ANTIBACTERIAL COMPOSITIONS” (Achaogen, Inc., priority 2009, published 2012).

Tests used:
envA+ (D21) E. coli = experiment: MIC by broth microdilution, isogenic envA+ strain; assay type: cell-based
[1] = system: Klebsiella pneumoniae (ATCC 43816); assay type: in vivo
Procedure: Vancomycin and LpxCi-5 were dissolved in 30% HPβCD (2-hydroxypropyl-β-cyclodextrin). Test substances were each administered subcutaneously (SC) singly or in combination to test animals at 2 hours and 14 hours after bacterial inoculation then bid daily for a total of 1, 2, 3 or 7 day(s). The dosing volume was 5 mL/kg.
Groups of 5 or 10 male specific-pathogen-free CD-1 (Crl.) mice weighing 24±2 g were used. Animals were immunosuppressed by two or three intraperitoneal injections of cyclophosphamide, the first at 150 mg/kg 4 days before infection (day −4) and the second or third at 100 mg/kg 1 day before or 3 days after infection (day −1 or +3). On day 0, animals were inoculated intramuscularly (0.1 mL/thigh) into the right thigh with a specific number (1.35×10^7 CFU/mouse) of Klebsiella pneumoniae (ATCC 43816). Vehicle and test substances (singly or in combination) were each administered subcutaneously 2 hours and 14 hours after inoculation then bid for a total of 1, 2, 3 or 7 consecutive day(s). Groups at 24, 48, 72 hours and day 8 hours after treatment as the designated time of harvest, muscle of the right thigh was harvested from each of the survival test animals. An additional group with no treatment, at 2 hours after inoculation, the muscle of the right thigh was harvested and viable CFU on agar plates with or without drug were quantified by standard methods. Animals in groups designated for Day 8 harvest are 10 mice and daily tally of survivors were kept until harvest and recorded. A non-infected group was just treated with LpxCi-5 and kept out to Day 8 and then harvested. The removed muscle tissues were then homogenized in 3˜4 mL of PBS, pH 7.4, with a ceramic mortar. Homogenates of 0.1 mL were used for serial 10-fold dilutions and plated on Muller-Hinton Broth in 1.5% Bacto agar and plated in parallel with drug plates for CFU determination. The original inoculum was adjusted to 2×10^8 CFU/0.1 mL and then plated onto the 3 different drug plates of LpxCi-5 for CFU count.
The immunity of animals treated with vehicle or vancomycin alone was suppressed by two intraperitoneal injections of cyclophosphamide, the first was at 150 mg/kg 4 days before infection (day −4) and the second was at 100 mg/kg 1 day before infection (day −1). On day 0, test compound and vehicle were each administered subcutaneously at 2 and 14 hrs after animals were inoculated intramuscularly (0.1 mL/thigh) with 1.35×10^7 CFU/mouse of Klebsiella pneumoniae (ATCC 43816).
(§1) The immunity of animals treated with LpxCi-5 alone was suppressed by two or three intraperitoneal injections of cyclophosphamide, the first was at 150 mg/kg 4 days before infection (day −4); the second and the third was at 100 mg/kg 1 day before and three days after infection (day −1 and day +3). On day 0, test compound were each administered subcutaneously bid at 2 and 14 hrs after animals were inoculated intramuscularly (0.1 mL/thigh) with 1.35×10^7 CFU/mouse of Klebsiella pneumoniae (ATCC 43816) for one, two, three or seven consecutive days. At 24, 48, 72 hours or at day 8 after treatment, muscle of the right thigh was harvested from each of the test animals for CFU determination in normal and drug plates.
as §1, with “both vancomycin and the LpxC inhibitor, LpxCi-5,” for “LpxCi-5 alone”, “compounds in combination” for “compound”, “days.” for “days. At 24, 48, 72 hours or at day 8 after treatment, muscle of the right thigh was harvested from each of the test animals for CFU determination in normal and drug plates.”

[2] = system: P. aeruginosa (ATCC27853); conditions: P. aeruginosa (ATCC27853); summary

CN[C@H](CC(C)C)C(=O)N[C@H]1C(=O)N[C@@H](CC(N)=O)C(=O)N[C@H]2C(=O)N[C@H]3C(=O)N[C@H](C(=O)N[C@H](C(=O)O)c4cc(O)cc(O)c4-c4cc3ccc4O)[C@H](O)c3ccc(c(Cl)c3)Oc3cc2cc(c3O[C@@H]2O[C@H](CO)[C@@H](O)[C@H](O)[C@H]2O[C@H]2C[C@](C)(N)[C@H](O)[C@H](C)O2)Oc2ccc(cc2Cl)[C@H]1O [Vancomycin, vancomycin]
MIC (envA+ (D21) E. coli): > 256 mg/L | Mean CFU/g thigh muscle (SEM) ([1]; 24 hr, normal plates, SC bid × 1, Vancomycin 25 mg/kg, LpxC-i 35 mg/kg): all animals died | animals for which the inoculum was lethal at 24 hours ([1]; Vancomycin only treatment group): 100% | time within which all mice died ([1]; vancomycin alone, SC at 2 and 14 hrs after inoculation): ≤ 24 h | in vivo synergy with LpxC inhibitors [2]: surprising in vivo synergy
